Results as given in patent US11891703B2, “Corrosion inhibition package” (DORF KETAL CHEMICALS FZE, priority 2017, dated 2024).

Columns and labels:
[1] = death can occur in 2-3 minutes; cited from earlier work
[2] = cited from earlier work
[3] = Corrosion test of acid compositions with corrosion inhibition package on 1018 steel coupons; settings: Table 3, 1.2:1 HCl-Urea, 50% dilution in seawater, 90° C., 6 hours, 1% package + 1% CI-1A
Description: Various types of steel alloy coupons were subjected to corrosion testing in the presence of conventional, synthetic and modified acid compositions using corrosion inhibitor components according to preferred embodiments of the present invention at various temperatures. Coupons of various grades of steel alloys (indicated in each table) were exposed to the various listed compositions for various periods of time at varying temperatures.
The following corrosion testing outlined in the tables below for a number of different corrosion inhibition packages according to the present invention in the presence of a synthetic or modified acid composition was carried out diluted with saline water (in most cases) at various temperatures for various durations of exposure. Depending on the intended use/application of an acidic fluid composition comprising a corrosion inhibitor package according to the present invention, a desirable result would be one where the lb/ft^2 corrosion number is at or below 0.05. A more desirable would be one where the corrosion (in lb/ft^2) is at or below 0.02. Generally, seawater has the deleterious effect of potentiating corrosion, consequently corrosion inhibition packages which follow the guidelines or regulations for offshore oil production are highly desirable for operators. Where applicable the fluids (acid compositions) were diluted as indicated.

[4] = cited from earlier work; remark: listed apart in the source

## Cl [Hydrogen chloride gas, Hydrogen chloride]
[1]
  level at which death can occur: 1300-2000 ppm

## CCCCCCOCCOCCOCCO [NOVEL® 6-3 Ethoxylate, CH3 (CH2)4CH2(OCH2CH2)3OH]
[2]
  solubility in hydrocarbons: soluble
  solubility in water: sparingly soluble

## O=CC=Cc1ccccc1 [ZA, Cinnamaldehyde]
[3]
  Corrosion lb/ft2: 0.008 lb/ft2
  Corrosion rate Mils/yr: 296.053 Mils/yr
  Corrosion rate mm/year: 7.52 mm/year
  Wt loss: 0.168 g

## C#CCO [propargyl alcohol]
[4]
  performance on Cr-13 alloys (pitting): poor performance
